# Measured values: US11247970B2, “Selective inhibition of gluconeogenic activity” (Dana-Farber Cancer Institute, Inc., priority 2017, dated 2022)
# Experiments:
# primary hepatocytes = assay: Glucose production by primary hepatocytes (glucagon or Ad-PGC-1α); assay type: cell-based, mouse; conditions: for glucose release to culture medium compared to control: hepatocytes ectopically expressing PGC-1α, overnight treatment, pyruvate/lactate
# Description: (§1) For measurement of acetylation, gene expression and glucose production SR-18292 ([…]) was added to cells overnight and fresh compound was added the following day for additional 3 h before collecting the cells (for total of ˜18 h treatment). Where insulin and glucagon stimulation were performed, the medium was changed to starvation medium (DMEM, 0.2% BSA, 2 mM sodium pyruvate, and 1% penicillin/streptomycin) with fresh compound for the last 3 h and cells were stimulated with either 100 nM insulin or 200 nM glucagon for an extra 1.5 h. For glucose measurements following PGC-1α over expression cells were incubated for the last 3 h in glucose-free medium (phenol-red/glucose free DMEM, 0.2% BSA, 2 mM sodium pyruvate and 20 mM sodium lactate or 10 mM glycerol in case glycerol was used as substrate). For glucose measurements following glucagon stimulation cells were incubated for the last 4 h in the same glucose-free medium that also contained glucagon (200 nM). The glucose level in the medium was measured using a glucose assay kit from Eton Bioscience Inc. by adding […] of assay buffer to […] of medium followed by 15 min incubation at 37° C. Absorbance was measured at 490 nm.
# PGC-1α activates hepatic gluconeogenic gene expression, and an increase in its acetylation status reduces expression of both Pck1 and G6pc genes (Rodgers et al., 2005; Yoon et al., 2001). […] Thus, a high-throughput screen with these 252 compounds at different doses was performed. Briefly, Hepatocytes were treated with forskolin for 1.5 hours to induce the expression of both Pck1 and G6pc genes, which mimics the fasting and PGC-1α-mediated gluconeogenic response. The dose response curves were used to calculate an inhibitory activity of the compounds by determining the difference in Ct values between compound treatment and forskolin control at each dose, and provided an estimated potency of the compounds in suppressing Pck1 and G6pc (FIGS. 4, 34). […] To specifically test the inhibitory activity of the remaining small molecule positive hits on PGC-1α-mediated glucose production, adenoviruses to ectopically express PGC-1α in primary hepatocytes were used. Similar to forskolin, PGC-1α overexpression induces gluconeogenic gene expression and promotes glucose release. Primary hepatocytes were treated with the chosen positive hit compounds that could suppress gluconeogenic gene expression, and the concentration of glucose released to the culture medium was measured.
# [1] = tested on: Pck1 and G6pc gene expression; assay: Gluconeogenic gene and protein expression in primary hepatocytes (qPCR, western); assay type: cell-based, mouse; design: effect on glucagon or PGC-1α-increased Pck1 and G6pc expression, relative to SR-18292: dose or concentration left out as unconfirmed; conditions: 18 h, glucagon or Ad-PGC-1α
# Description: as §1
# siRNA oligos against mouse Ppargc1a were purchased from OriGene (SR420231). Hepatocytes were transfected with a 1:1:1:mixture of 3 unique 27mer siRNA duplexes ([…]) using Lipofectamin RNAiMax (Invitrogen) immediately upon seeding with plating medium. The following morning cells were washed with PBS and medium was changed to maintenance medium. In the afternoon, cells were transfected again and compound treatment started.
# Total RNA was extracted from cells or pulverized liver using TRIzol reagent (Ambion, Life Technologies), followed by cDNA preparation from 2 μg of total RNA with a High-Capacity cDNA Reverse Transcription Kit (Applied Biosystems). cDNA products were quantified by real-time PCR using Power SYBR Green PCR Master Mix (Applied Biosystems) on a CFX384 Real-Time PCR System (Bio-Rad). To calculate IC50 from C-80 dose response, curves were fit to the hill equation in a similar manner used to calculate estimated AC50 from the high-throughput qPCR screen. However, unlike the curves from the qPCR high-throughput screen, values of relative repression were used rather than of delta-Ct.
# PGC-1α [2] = target: T1, PGC-1α (Mus musculus, UniProt O70343); assay: Western blot of PGC-1α acetylation in U-2 OS cells (analog comparison); assay type: cell-based; design: expressed in transfected cells; host or cells: U-2 OS cells infected with Ad-PGC-1α and Ad-GCN5; dose or concentration left out as unconfirmed; conditions: Ad-PGC-1α and Ad-GCN5, 18 h
# T1 sequence (O70343 1-797): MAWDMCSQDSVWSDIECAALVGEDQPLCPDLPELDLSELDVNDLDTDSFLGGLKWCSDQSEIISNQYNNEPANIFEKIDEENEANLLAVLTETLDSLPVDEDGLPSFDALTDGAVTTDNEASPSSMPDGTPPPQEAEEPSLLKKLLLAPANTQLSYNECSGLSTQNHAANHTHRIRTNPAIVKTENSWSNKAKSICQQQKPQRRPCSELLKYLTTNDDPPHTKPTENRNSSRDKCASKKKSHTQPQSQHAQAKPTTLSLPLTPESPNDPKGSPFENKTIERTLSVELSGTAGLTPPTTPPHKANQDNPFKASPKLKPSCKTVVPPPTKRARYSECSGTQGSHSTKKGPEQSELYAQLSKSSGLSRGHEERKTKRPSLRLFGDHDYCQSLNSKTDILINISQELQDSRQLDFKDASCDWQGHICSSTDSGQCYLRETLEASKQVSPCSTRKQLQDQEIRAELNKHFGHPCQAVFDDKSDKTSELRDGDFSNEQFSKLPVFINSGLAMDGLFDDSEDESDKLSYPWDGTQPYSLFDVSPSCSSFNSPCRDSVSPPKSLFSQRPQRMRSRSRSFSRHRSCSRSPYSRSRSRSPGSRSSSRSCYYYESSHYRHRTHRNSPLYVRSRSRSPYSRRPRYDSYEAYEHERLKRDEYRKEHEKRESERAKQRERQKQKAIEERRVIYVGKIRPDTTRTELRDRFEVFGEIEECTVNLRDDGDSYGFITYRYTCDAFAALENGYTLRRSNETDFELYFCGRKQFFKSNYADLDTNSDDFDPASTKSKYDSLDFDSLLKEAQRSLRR
# Description: U-2 OS cells were infected with Ad-PGC-1α and Ad-GCN5 and treated with the indicated compound for 18 h. PGC-1α was immunoprecipitated using FLAG beads.
# For PGC-1α acetylation detection in hepatocytes cells were infected with Ad-PGC-1α and Ad-GCN5. Cells were collected in RIPA buffer (containing protease inhibitor cocktail, 5 mM NaF, 5 mM β-glycerophosphate, 10 mM nicotinamide, 1 mM DTT and 1 μM trichostatin A). FLAG-HA-PGC-1α was immunoprecipitated overnight at 4° C. with FLAG beads (Sigma A2220). For GCN5 interaction with PGC-1α, U-2 OS cells were infected with Ad-PGC-1α. Nuclear extracts were obtained by lysing cell in Buffer A (10 mM HEPES-KOH (pH 7.9), 10 mM KCl, 1.5 mM MgCl2, 0.5 mM DTT, 0.25% IGEPAL (v/v), 5 mM NaF, 5 mM β-glycerophosphate, 5 mM sodium butyrate and 10 mM nicotinamide), supplemented with Protease Inhibitor Cocktail. Once cytoplasmic fractions were separated, nuclear pellets were lysed in Buffer B (20 mM HEPES-KOH (pH 7.9), 125 mM NaCl, 1 mM EDTA, 1 mM DTT, 1% IGEPAL (v/v), 10% glycerol (v/v), 5 mM NaF, 5 mM β-glycerophosphate, 5 mM sodium butyrate and 10 mM nicotinamide), supplemented with Protease Inhibitor Cocktail. FLAG-HA-PGC-1α was immunoprecipitated with FLAG beads overnight at 4° C. All beads were washed at last 3 times in lysis buffer before eluting in sample loading buffer.
# PGC-1α [3] = target: T1, PGC-1α; assay: AlphaLisa PGC-1α acetylation screen in U-2 OS cells over expressing PGC-1α and GCN5; assay type: cell-based; design: expressed in transfected cells; host or cells: U-2 OS cells infected with Ad-PGC-1α and Ad-GCN5
# Description: U-2 OS cells were thawed and grown in 4 Triple flasks (NUNC) with growth medium. After 48 hours, cells were harvested and seeded in 4 Hyper flasks at a density of 15-20 million cell each. Cells were then grown for 4-5 days until reached confluency. After reaching the desired confluency, medium was changed to assay medium and cells were infected with Ad-PGC-1α and Ad-GCN5 for 4 hours. Following infection, medium was changed to phenol-free medium and cells were incubated overnight. The following day, cells were harvested and seeded on a 384-well plate at 7000 cells/well in […] assay media. Cells were allowed to adhere for 4-8 hours after which 100 nl of compound was added. After overnight incubation with compound, media was aspirated and cells were incubated with lysis buffer for 1 hour at RT. […] Perkin Elmer EnVision plate reader was used for signal detection using Alpha protocol. For each compound, activity score was calculated based on the mean of the normalized and corrected sample activity replicates. […] For each sample the highest valid tested concentration was determined and set as Maximum concentration. […] AC values were calculated using the curve fitting strategies in Genedata Screener Condoseo (7.0.3) and up to the active concentration limit (Maximum concentration) described for each sample. […]
# [4] = Preliminary pharmacokinetics, liver concentration; assay type: in vivo; conditions: ip, 2 h after single dose 30 mg/kg I.P., read-out: compound concentration in the liver
# [5] = Bioavailability (data not shown)
# [6] = Solubility (data not shown); assay type: physicochemical
smiles,measurement,setting,value
"CN(C)C(=N)N=C(N)N [metformin, reference compound]",concentration able to suppress glucose production,primary hepatocytes; hepatocytes,100 to 250 µM
Cc1ccc(CN(CC(O)COc2ccccc2)C(C)(C)C)cc1 (stereo not drawn) [SR-19138],"effect on glucagon or PGC-1α-increased Pck1 and G6pc expression, relative to SR-18292",[1],reduced the inhibitory effect
same,ability to induce acetylation of PGC-1α compared to SR-18292,PGC-1α [2],reduced ability to induce acetylation of PGC-1α
Cc1ccc(CN(CC(O)COc2cccc3[nH]cc(C)c23)C(C)(C)C)cc1 (stereo not drawn) [Compound C-80],potency in a confirmatory screen,PGC-1α [3],highest potency
same,concentration at 2 h,[4],2300 nM
same,glucose release to culture medium compared to control,primary hepatocytes,next most potent small molecule
Cc1nc(N2CCN(S(=O)(=O)c3ccc(F)cc3)CC2)c2c(-c3cccs3)csc2n1 [Compound C-82],bioavailability,[5],poor
same,glucose release to culture medium compared to control,primary hepatocytes,top small molecule hit suppressing glucose production
same,solubility,[6],poor
